Results: patent US11590071B2, “Injectable drug delivery implant composition and method of use thereof” (King Abdulaziz University, priority 2021, dated 2023)
Structures can show the parent of a compound that is named as a salt.

How the values were obtained:
rat subcutaneous tissue = assay: Tissue biocompatibility study of DMF ISFI system (physical inspection for inflammation); format: in vivo, rats; conditions: SC injection; visual observation
Description: Tissue biocompatibility study of DMF ISFI system was performed. Mice were separated into three groups i.e., positive control group, test group, negative control group and each group consist of three animals to assess the DMF and ISFI biocompatibility. All of the three groups received different drugs like first group received phosphate buffer of pH 7.4 dispersed DMF, test group was given both drug DMF with the ISFI and the last group were given only ISFI. For all physical signs of inflammation, all the animals were visually observed. Produces responses in experimental animals were graded as 0 for normal, + for mild symptoms, ++ for moderate and +++ used for the severe symptoms. After injecting the drugs in animals, one mouse per group was sacrificed at the interval of 3rd day, 7th day and 14th days. The adjacent tissues were excised and fixed in 10% formalin tamped with phosphate buffer. The tissue was under the observation of optical microscope after the hematoxylin and eosin staining process for the changes in acute inflammatory responses, fibrosis and foreign body reaction. (Anderson and Langone, 1999 and Park and Park, 1999).

[1] = In vivo drug release study (plasma DMF by HPLC after SC injection); set-up: species or system Albino Wistar rats; conditions: rats, S.C.
Description: In vivo drug release study was also performed. Albino Wistar rats (275-300 g) were used in the study. Sterile polypropylene cages with paddy husk were used for the housing of experimental animals. Standard food pellets were given to the animals with water ad libitum. Uses of experimental animal were approved by the IAEC (JSSCP, S. S. Nagar, Mysore, India Code No: 132/2013) and for all the purpose of animal welfare the CPCSEA guidelines were followed.
The experimental animals were separated into groups of three and each group consisted of three animals. […] For injecting 0.5 mL of injectable gel, a syringe of 1 mL with the needle of 26-gauge was used.
For the In-vivo detection of Dimethyl Fumarate, an aliquot of blood was drawn from retro orbital sinus of each rat at specified blood collection times. 1.5 mL aliquot of blood from retro orbital sinus was collected in an EDTA coated Eppendorf tube. The tubes were centrifuged at 4° C. and 8000 rpm for 10 min to collect plasma. Plasma was separated into a separate eppendorf tube. Until the screening or assay of plasma samples by using HPLC, the sample was stored at −20° C.
All animals remained in good health throughout the acclimatization and study periods. The cumulative (±SD) plasma concentrations of DMF at the times of sample collection after SC are plotted in FIG. 8. Drug concentration was determined by using HPLC method. […]

In the case of `COC(=O)/C=C/C(=O)OC` [DMF, Dimethyl fumarate], the “inflammatory reaction at physical inspection” value (rat subcutaneous tissue) is reported as “highest inflammation”, the “plasma concentration (final level)” value ([1]; pure drug 1 mg/0.2 mL, group III) is reported as “non-detectable quantities” and the “time after which plasma concentration falls” value ([1]; pure drug 2 mg/0.2 mL, Group I) is reported as 150 h.
